From patent US11466036B2, “Borate of azetidine derivative” (Chia Tai Tianqing Pharmaceutical Group Co., Ltd., priority 2018, dated 2022)

Key:
[1] = Liver microsomal stability test, human; assay type: in vitro ADME; details: human (H) liver microsomes; read-out: Liver microsomal stability (T1/2, min)
Description: (§1) Experimental Example 2: Liver Microsomal Stability Test for Compounds
(§2) Test compounds were each co-incubated with liver microsomes from CD-1 mice, SD rats, and humans to evaluate the stability of the test compounds.
(§3) Preparation of test compound solution samples: a 10 mM DMSO solution of the example compound (5 μL) was added to a mixed solvent of DMSO (45 μL), methanol and water (450 μL, volume ratio of methanol and water was 1:1) to prepare a 100 μM test compound solution; 50 μL of the 100 μM test compound solution was added to 450 μL of 100 mM potassium phosphate buffer to give a 10 μM test compound solution.
(§4) The 10 μM test compound solution was preincubated with microsomes of three species (human, rat and mouse, respectively) for 10 minutes, and then reduced nicotinamide adenine dinucleotide phosphate (NADPH) regeneration system working solution was added to the incubation plate according to each time point to initiate the reaction, and finally at 0, 5, 10, 20, 30 and 60 minutes, stop solution (100% ACN) was added to the reaction plate to stop the reaction. The test compounds were determined using LC-MS/MS method.

[2] = Liver microsomal stability test, rat; assay type: in vitro ADME, SD rats; details: SD; rat (R) liver microsomes; read-out: Liver microsomal stability (T1/2, min)
Description: as §1, §2, §3, §4

MM1.S cells = test: In vitro anti-proliferation experiment for MM1.S cells (CellTiter-Glo); assay type: cell-based; details: Homo sapiens, 48 h, 2 days incubation, 0.3 nM-2000 nM
Description: In Vitro Anti-Proliferation Experiment for MM1.S Cells
In this experiment, the effect of compounds on inhibiting cell proliferation was investigated by determining their effect on cell activity in vitro in the tumor cell line MM1.S.
MM1.S cells were seeded into a black 96-well cell culture plate at a density of 7,000 cells per well, and the plates were then incubated overnight in an incubator at 37° C., 5% CO2 and 100% relative humidity. Test compounds were added to the cell culture wells at a concentration (0.3 nM-2000 nM) and the plate was then put back into the incubator with vehicle control (DMSO added, no test compound) and blank control set. The plate was incubated for 2 days in an incubator at 37° C., 5% CO2 and 100% relative humidity. Samples were processed using a standard method of the Promega CellTiter-Glo luminescence cell activity detection kit (Promega-G7571) and luminescence signals were detected on a SpectraMax i3× of Molecular Devices plate reader. The inhibition rate of the test compound was calculated using the following formula: […]

[3] = Liver microsomal stability test, mouse; assay type: in vitro ADME, CD-1 mice; details: CD-1; mouse (M) liver microsomes; read-out: Liver microsomal stability (T1/2, min)
Description: as §1, §2, §3, §4

MDR1 = test: Cell membrane permeability test on MDR1-MDCK II cells; assay type: in vitro ADME; details: dog; for efflux ratio at 150 min, 2 μM: MDCK-MDR1, pH 7.4, Papp B to A/Papp A to B; for Papp A→B at 150 min, 2 μM / Papp B→A at 150 min, 2 μM: MDCK-MDR1, pH=7.4
Description: Experimental Example 3: Cell Membrane Permeability Test for Compounds
Test compounds were evaluated for cell membrane permeability on MDR1-MDCK II cells.
Test compounds (10 mM DMSO solution of compound) were each diluted with transfer buffer (HBSS with 10 mM Hepes, pH=7.4) and formulated into samples at a final concentration of 2 μM, and then bidirectional (A-B and B-A) administration was performed. After administration, the cell plate was incubated for 150 minutes in an incubator at 37° C., 5% CO2 and saturated humidity. After the 150 minutes of incubation, samples were collected and the concentrations of test compounds in the transfer samples were semi-quantitatively determined using LC-MS/MS method.

[4] = Stability experiment (solid sample in stability boxes, content by HPLC); assay type: physicochemical
Description: Experimental Example 4: Stability Experiment
About 50 mg of a sample was placed in a clean disposable petri dish and spread into a thin layer. The petri dish was covered with aluminum foil paper which was pricked with several small holes. The sample, in duplicate, was placed in stability boxes of 25° C.±2° C./60% RH±5% RH and 40° C.±2° C./75% RH±5% RH, respectively, and sampled at the planned time points, and the content of the compound was determined using the HPLC method, and the results are shown in Table 9.

Compound: CC(C)C[C@H](NC(=O)CNC(=O)[C@@H]1CCN1c1ccc(F)cc1)B(O)O [Compound 1-9]
- half-life [1]: 74.3 min
- half-life [2]: 42.1 min
- IC50 (MM1.S cells): 5.8 nM
- half-life [3]: 43.5 min

Compound: CC(C)C[C@H](NC(=O)CNC(=O)[C@@H]1CCN1c1ncc(F)cc1F)B(O)O [Compound 2-8]
- IC50 (MM1.S cells): 24 nM

Compound: CC(C)C[C@H](NC(=O)CNC(=O)[C@@H]1CCN1c1ccc(F)cc1F)B(O)O (single isomer, unassigned) [Compound 4-9]
- efflux ratio at 150 min, 2 μM (MDR1): 19.3
- Papp A→B at 150 min, 2 μM (MDR1): 0.38 ×10⁻⁶ cm/s
- Papp B→A at 150 min, 2 μM (MDR1): 7.32 ×10⁻⁶ cm/s
- half-life [1]: 67.4 min
- half-life [2]: 43.1 min
- IC50 (MM1.S cells): 1 nM
- half-life [3]: 67.4 min

Compound: CC(C)C[C@H](NC(=O)CNC(=O)[C@@H]1CCN1c1nc(C(F)(F)F)cs1)B(O)O [Compound 2-9]
- efflux ratio at 150 min, 2 μM (MDR1): 9.33
- Papp A→B at 150 min, 2 μM (MDR1): 0.24 ×10⁻⁶ cm/s
- Papp B→A at 150 min, 2 μM (MDR1): 2.24 ×10⁻⁶ cm/s
- half-life [1]: 75 min
- half-life [2]: 26.5 min
- IC50 (MM1.S cells): 24.2 nM
- half-life [3]: 37.7 min

Compound: CC(C)C[C@H](NC(=O)CNC(=O)[C@@H]1CCN1c1ccc(C#N)cc1F)B(O)O (single isomer, unassigned) [Compound 3-7]
- IC50 (MM1.S cells): 90.6 nM

Compound: CC(C)C[C@H](NC(=O)CNC(=O)[C@@H]1CCN1c1ccc(F)cc1F)B1OC(=O)[C@H](CC(=O)O)O1 [Compound I-1]
- content of the compound ([4]; 25° C./60% RH, Day 0): 98.6%
- content of the compound ([4]; 25° C./60% RH, Day 7): 97.8%
- content of the compound ([4]; 25° C./60% RH, Day 14): 100%
- content of the compound ([4]; 25° C./60% RH, Day 21): 100%
- content of the compound ([4]; 25° C./60% RH, Day 28): 100%
- content of the compound ([4]; 40° C./75% RH, Day 0): 98.6%
- content of the compound ([4]; 40° C./75% RH, Day 7): 99.1%
- content of the compound ([4]; 40° C./75% RH, Day 14): 98.5%
- content of the compound ([4]; 40° C./75% RH, Day 21): 100%
- content of the compound ([4]; 40° C./75% RH, Day 28): 100%
- IC50 (MM1.S cells): 13 nM
